Tested on: HCV replicon cells
Assay: HCV replicon FRET assay
Assay type: cell-based
Conditions: Hepatitis C virus
From the text: FRET Assay Preparation. To perform the HCV FRET screening assay, 96-well cell culture plates were used. The FRET peptide (Anaspec, Inc.) (Taliani et al., Anal. Biochem. 1996, 240, 60-67) contains a fluorescence donor, EDANS, near one end of the peptide and an acceptor, DABCYL, near the other end. The fluorescence of the peptide is quenched by […] resonance energy transfer (RET) between the donor and the acceptor, but as the NS3 protease cleaves the peptide the products are released from RET quenching and the fluorescence of the donor becomes apparent. The assay reagent was made as follows: 5× cell Luciferase cell culture lysis reagent from Promega (#E153A) diluted to 1× with dH2O, NaCl added to 150 mM final, the FRET peptide diluted to 20 uM final from a 2 mM stock.
To prepare plates, HCV replicon cells, with or without a Renilla luciferase reporter gene, were trypsinized and placed into each well of a 96-well plate with titrated test compounds added in columns 3 through 12; columns 1 and 2 contained a control compound (HCV protease inhibitor), and the bottom row contained cells without compound. The plates were then placed in a CO2 incubator at 37° C.
Assays. Subsequent to addition of the test compounds described above (FRET Assay Preparation), at various times the plate was removed and Alamar blue solution (Trek Diagnostics, #00-100) was added per well as a measure of cellular toxicity. After reading in a Cytoflour 4000 instrument (PE Biosystems), plates were rinsed with PBS and then used for FRET assay by the addition of 30 ul of the FRET peptide assay reagent described above (FRET Assay Preparation) per well. The plate was then placed into the Cytoflour 4000 instrument which had been set to 340 excite/490 emission, automatic mode for 20 cycles and the plate read in a kinetic mode. Typically, the signal to noise using an endpoint analysis after the reads was at least three-fold. Alternatively, after Alamar blue reading, plates were rinsed with PBS, 50 ul of DMEM (high glucose) without phenol red was added and plates were then used for luciferase assay using the Promega Dual-Glo Luciferase Assay System.
Compound analysis was determined by quantification of the relative HCV replicon inhibition and the relative cytotoxicity values. To calculate cytoxicity values, the average Alamar Blue fluorescence signals from the control wells were set as 100% non-toxic. The individual signals in each of the compound test wells were then divided by the average control signal and multiplied by 100% to determine […]. To calculate the HCV replicon inhibition values, an average background value was obtained from the two wells containing the highest amount of HCV protease inhibitor at the end of the assay period. These numbers were similar to those obtained from naïve Huh-7 cells.
The background numbers were then subtracted from the average signal obtained from the control wells and this number was used as 100% activity. The individual signals in each of the compound test wells were then divided by the averaged control values after background subtraction and multiplied by 100% to determine percent activity. EC50 values for a protease inhibitor titration were calculated as the concentration which caused a 50% reduction in FRET or luciferase activity. The two numbers generated for the compound plate, percent cytoxicity and percent activity were used to determine compounds of interest for further analysis.

Compound	EC50 [nM]
COc1ccc2c(c1)C1CC1(NC(=O)N1C[C@@H](C)O[C@@H](C)C1)Cn1c-2c(C2CCCCC2)c2ccc(C(=O)NS(=O)(=O)N(C)C)cc21 (stereo partly shown)	70 to 1000
COc1ccc2c(c1)C1CC1(NC(=O)N1CCOCC1)Cn1c-2c(C2CCCCC2)c2ccc(C(=O)O)cc21 (stereo not shown)	70 to 1000
COCCNC(=O)CN(C)C(=O)NC12CC1c1cc(OC)ccc1-c1c(C3CCCCC3)c3ccc(C(=O)NS(=O)(=O)N(C)C)cc3n1C2 (stereo not shown)	20 to 1000
COc1ccc2c(c1)C1CC1(NC(=O)N1CC(OC)C1)Cn1c-2c(C2CCCCC2)c2ccc(C(=O)NS(=O)(=O)N(C)C)cc21 (stereo not shown)	20 to 1000
COc1ccc2c(c1)C1CC1(NC(=O)N(C)CC(N)=O)Cn1c-2c(C2CCCCC2)c2ccc(C(=O)NS(=O)(=O)N(C)C)cc21 (stereo not shown)	20 to 1000
COc1ccc2c(c1)[C@@H]1C[C@]1(N)Cn1c-2c(C2CCCCC2)c2ccc(C(=O)NS(=O)(=O)N(C)C)cc21	20 to 1000
COc1ccc2c(c1)C1CC1(NC(=O)OC(C)(C)C)Cn1c-2c(C2CCCCC2)c2ccc(C(=O)NS(=O)(=O)N(C)C)cc21 (stereo not shown)	20 to 1000
COc1ccc2c(c1)[C@@H]1C[C@]1(NC(=O)OC(C)(C)C)Cn1c-2c(C2CCCCC2)c2ccc(C(=O)NS(=O)(=O)N(C)C)cc21	20 to 1000
COc1ccc2c(c1)C1CC1(N)Cn1c-2c(C2CCCCC2)c2ccc(C(=O)NS(=O)(=O)N(C)C)cc21 (stereo not shown)	20 to 1000
COc1ccc2c(c1)C1CC1(NC(=O)N(C)CCN(C)C)Cn1c-2c(C2CCCCC2)c2ccc(C(=O)NS(=O)(=O)N(C)C)cc21 (stereo not shown)	20 to 1000
COc1ccc2c(c1)C1CC1(NC(=O)N(C)CC(=O)N1CCN(C)CC1)Cn1c-2c(C2CCCCC2)c2ccc(C(=O)NS(=O)(=O)N(C)C)cc21 (stereo not shown)	20 to 1000
COc1ccc2c(c1)C1CC1(NC(=O)N(C)CC1CCOCC1)Cn1c-2c(C2CCCCC2)c2ccc(C(=O)NS(=O)(=O)N(C)C)cc21 (stereo not shown)	20 to 1000
O=C(O)c1ccc2c(C3CCCCC3)c3n(c2c1)CC1(NC(=O)N2CCOCC2)CC1c1ccccc1-3 (stereo not shown)	70 to 1000
COc1ccc2c(c1)C1CC1(NC(=O)N1C[C@@H](C)N(C)[C@@H](C)C1)Cn1c-2c(C2CCCCC2)c2ccc(C(=O)NS(=O)(=O)N(C)C)cc21 (stereo partly shown)	20 to 1000

Molecular target: T1, HCV NS5B RdRp genotype 1b (Hepatitis C virus genotype 1b, UniProt Q9WMX2)
T1 construct: The protein was expressed with an 18 amino acid C-terminal truncation to enhance the solubility; made in house; host or cells: E. coli BL21 (DE3), pET21a
T1 sequence (Q9WMX2 2420-2992): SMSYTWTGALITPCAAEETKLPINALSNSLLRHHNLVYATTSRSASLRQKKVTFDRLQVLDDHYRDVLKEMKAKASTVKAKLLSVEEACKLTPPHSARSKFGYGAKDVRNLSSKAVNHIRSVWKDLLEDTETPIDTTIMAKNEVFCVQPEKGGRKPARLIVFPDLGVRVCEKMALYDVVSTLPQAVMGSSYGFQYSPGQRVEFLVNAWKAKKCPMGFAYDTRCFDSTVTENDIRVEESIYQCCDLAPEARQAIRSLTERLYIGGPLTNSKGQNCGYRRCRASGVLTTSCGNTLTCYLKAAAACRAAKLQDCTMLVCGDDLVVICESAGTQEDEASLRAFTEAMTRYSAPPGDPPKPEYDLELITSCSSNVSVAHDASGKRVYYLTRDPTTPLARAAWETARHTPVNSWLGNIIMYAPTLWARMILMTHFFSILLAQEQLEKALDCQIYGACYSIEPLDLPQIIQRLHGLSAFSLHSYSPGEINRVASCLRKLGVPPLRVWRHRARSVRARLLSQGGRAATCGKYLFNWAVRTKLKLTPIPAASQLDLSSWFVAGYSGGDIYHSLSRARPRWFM
Assay: Modified HCV NS5B RdRp enzyme assay (preincubation protocol)
Assay type: biochemical
Conditions: not given
Procedure: HCV NS5B RdRp cloning, expression, and purification. The cDNA encoding the NS5B protein of HCV, genotype 1b, was cloned into the pET21a expression vector. The protein was expressed with an 18 amino acid C-terminal truncation to enhance the solubility. The E. coli competent cell line BL21 (DE3) was used for expression of the protein. Cultures were grown at 37° C. for ˜4 hours until the cultures reached an optical density of 2.0 at 600 nm. The cultures were cooled to 20° C. and induced with 1 mM IPTG. Fresh ampicillin was added to a final concentration of 50 μg/ml and the cells were grown overnight at 20° C.
Cell pellets (3L) were lysed for purification to yield 15-24 mgs of purified NS5B. The lysis buffer consisted of 20 mM Tris-HCl, pH 7.4, 500 mM NaCl, 0.5% triton X-100, 1 mM DTT, 1 mM EDTA, 20% glycerol, 0.5 mg/ml lysozyme, 10 mM MgCl2, 15 ug/ml deoxyribonuclease I, and Complete TM protease inhibitor tablets (Roche). After addition of the lysis buffer, frozen cell pellets were resuspended using a tissue homogenizer. To reduce the viscosity of the sample, aliquots of the lysate were sonicated on ice using a microtip attached to a Branson sonicator. The sonicated lysate was centrifuged at 100,000×g for 1 hr at 4° C. and filtered through a 0.2 μm filter unit (Corning).
The protein was purified using three sequential chromatography steps: Heparin sepharose CL-6B, polyU sepharose 4B, and Hitrap SP sepharose (Pharmacia). The chromatography buffers were identical to the lysis buffer but contained no lysozyme, deoxyribonuclease I, MgCl2 or protease inhibitor and the NaCl concentration of the buffer was adjusted according to the requirements for charging the protein onto the column. Each column was eluted with a NaCl gradient which varied in length from 5-50 column volumes depending on the column type. After the final chromatography step, the resulting purity of the enzyme is >90% based on SDS-PAGE analysis. The enzyme was aliquoted and stored at −80° C.
Standard HCVNS5B RdRp enzyme assay. HCV RdRp genotype 1b assays were run in a final volume of 60 μl in 96 well plates (Costar 3912). The assay buffer is composed of 20 mM Hepes, pH 7.5, 2.5 mM KCl, 2.5 mM MgCl2, 1 mM DTT, 1.6 U RNAse inhibitor (Promega N2515), 0.1 mg/ml BSA (Promega R3961), and 2% glycerol. All compounds were serially diluted (3-fold) in DMSO and diluted further in water such that the final concentration of DMSO in the assay was 2%. HCV RdRp genotype 1b enzyme was used at a final concentration of 28 nM. A polyA template was used at 6 nM, and a biotinylated oligo-dT 12 primer was used at 180 nM final concentration. Template was obtained commercially (Amersham 27-4110). Biotinylated primer was prepared by Sigma Genosys. 3H-UTP was used at 0.6 μCi (0.29 μM total UTP). Reactions were initiated by the addition of enzyme, incubated at 30° C. for 60 min, and stopped by adding 25 μl of 50 mM EDTA containing SPA beads (4 μg/μl, Amersham RPNQ 0007). Plates were read on a Packard Top Count NXT after >1 hr incubation at room temperature.
Modified HCVNS5B RdRp enzyme assay. A modified enzyme assay was performed essentially as described for the standard enzyme assay except for the following: The biotinylated oligo dT12 primer was precaptured on streptavidin-coated SPA beads by mixing primer and beads in assay buffer and incubating at room temperature for one hour. Unbound primer was removed after centrifugation. The primer-bound beads were resuspended in 20 mM Hepes buffer, pH 7.5 and used in the assay at final concentrations of 20 nM primer and 0.67 μg/μl beads. Order of addition in the assay: enzyme (14 nM) was added to diluted compound followed by the addition of a mixture of template (0.2 nM), 3H-UTP (0.6 μCi, 0.29 μM), and primer-bound beads, to initiate the reaction; concentrations given are final. Reactions were allowed to proceed for 4 hours at 30° C.
IC50 values for compounds were determined using seven different [I]. […]

Compound	IC50 [nM]
COc1ccc2c(c1)C1CC1(NC(=O)N1C[C@@H](C)O[C@@H](C)C1)Cn1c-2c(C2CCCCC2)c2ccc(C(=O)NS(=O)(=O)N(C)C)cc21 (stereo partly shown)	20 to 1000
COc1ccc2c(c1)C1CC1(NC(=O)N1CCOCC1)Cn1c-2c(C2CCCCC2)c2ccc(C(=O)O)cc21 (stereo not shown)	20 to 1000
COCCNC(=O)CN(C)C(=O)NC12CC1c1cc(OC)ccc1-c1c(C3CCCCC3)c3ccc(C(=O)NS(=O)(=O)N(C)C)cc3n1C2 (stereo not shown)	20 to 1000
COc1ccc2c(c1)C1CC1(NC(=O)N1CC(OC)C1)Cn1c-2c(C2CCCCC2)c2ccc(C(=O)NS(=O)(=O)N(C)C)cc21 (stereo not shown)	20 to 1000
COc1ccc2c(c1)C1CC1(NC(=O)N(C)CC(N)=O)Cn1c-2c(C2CCCCC2)c2ccc(C(=O)NS(=O)(=O)N(C)C)cc21 (stereo not shown)	20 to 1000
COc1ccc2c(c1)[C@@H]1C[C@]1(N)Cn1c-2c(C2CCCCC2)c2ccc(C(=O)NS(=O)(=O)N(C)C)cc21	20 to 1000
COc1ccc2c(c1)C1CC1(NC(=O)OC(C)(C)C)Cn1c-2c(C2CCCCC2)c2ccc(C(=O)NS(=O)(=O)N(C)C)cc21 (stereo not shown)	20 to 1000
COc1ccc2c(c1)[C@@H]1C[C@]1(NC(=O)OC(C)(C)C)Cn1c-2c(C2CCCCC2)c2ccc(C(=O)NS(=O)(=O)N(C)C)cc21	20 to 1000
COC(=O)c1ccc2c(C3CCCCC3)c3n(c2c1)CC1(NC(=O)N2CCOCC2)CC1c1cc(OC)ccc1-3 (stereo not shown)	20 to 1000
COc1ccc2c(c1)C1CC1(N)Cn1c-2c(C2CCCCC2)c2ccc(C(=O)NS(=O)(=O)N(C)C)cc21 (stereo not shown)	20 to 1000
COc1ccc2c(c1)C1CC1(NC(=O)N(C)CCN(C)C)Cn1c-2c(C2CCCCC2)c2ccc(C(=O)NS(=O)(=O)N(C)C)cc21 (stereo not shown)	20 to 1000
COc1ccc2c(c1)C1CC1(NC(=O)N(C)CC(=O)N1CCN(C)CC1)Cn1c-2c(C2CCCCC2)c2ccc(C(=O)NS(=O)(=O)N(C)C)cc21 (stereo not shown)	20 to 1000
COC(=O)c1ccc2c(C3CCCCC3)c3n(c2c1)CC1(NC(=O)N2CCOCC2)CC1c1ccccc1-3 (stereo not shown)	20 to 1000
COc1ccc2c(c1)C1CC1(NC(=O)N(C)CC1CCOCC1)Cn1c-2c(C2CCCCC2)c2ccc(C(=O)NS(=O)(=O)N(C)C)cc21 (stereo not shown)	20 to 1000
O=C(O)c1ccc2c(C3CCCCC3)c3n(c2c1)CC1(NC(=O)N2CCOCC2)CC1c1ccccc1-3 (stereo not shown)	20 to 1000
CNC12CC1c1cc(OC)ccc1-c1c(C3CCCCC3)c3ccc(C(=O)NS(=O)(=O)N(C)C)cc3n1C2 (stereo not shown)	20 to 1000
COc1ccc2c(c1)C1CC1(NC(=O)N1C[C@@H](C)N(C)[C@@H](C)C1)Cn1c-2c(C2CCCCC2)c2ccc(C(=O)NS(=O)(=O)N(C)C)cc21 (stereo partly shown)	20 to 1000
